Source: patent US20170174649A1, “ESTERS OF ACETALS, COMPOSITION THEREOF, METHODS OF PREPARATION AND MAIN USES THEREOF IN COSMETIC AREA” (GLYCEROSOLUTION QUIMICA LTDA, priority 2015, published 2017)

Columns and labels:
[1] = Solubility of sunscreens using cocoil glyceryl acetal as solubilizing agent; assay type: physicochemical; conditions: solvent cocoil glyceryl acetal
[2] = Tests of skin irritation (OECD and GHS); assay type: in vivo
Description: Two new batches of cocoil glyceryl acetal were sent to confirm the tests of dermal irritation.

[3] = Tests of ocular irritation (OECD and GHS); assay type: in vivo; conditions: rules of OECD and GHS
Description: In the tests of ocular irritation, the product has been classified as non-irritating according to the rules of OECD and GHS.

[4] = Tests of oral toxicity (GHS classification); assay type: in vivo; conditions: rules of GHS

Compound	Solubility at 25° C. [1]	Skin irritation finding ([2]; one of the tests)	Skin irritation classification ([2]; two tests, rules of OECD and GHS)	Ocular irritation classification [3]	Oral toxicity classification [4]
COc1ccc(C(=O)CC(=O)c2ccc(C(C)(C)C)cc2)cc1 [4-(1,1-dimethylethyl)-4-methoxydibenzoylmethane]	14.0 grams/100 grams of cocoil glyceryl acetal	–	–	–	–
CCCCCCOC(=O)c1ccccc1C(=O)c1ccc(N(CC)CC)cc1O [Diethylamino hydroxybenzoi hexyl benzoate]	18.0 grams/100 grams of cocoil glyceryl acetal	–	–	–	–
CCCCC(CC)COC(=O)c1ccc(Nc2nc(Nc3ccc(C(=O)OCC(CC)CCCC)cc3)nc(Nc3ccc(C(=O)OCC(CC)CCCC)cc3)n2)cc1 (stereo not shown) [Ethylhexyl Triazone]	16.0 grams/100 grams of cocoil glyceryl acetal	–	–	–	–
cocoil glyceryl acetal	–	mild dermal irritation	non-irritating	non-irritating	class 5 (non-toxic)
